The text below walks through data of PubChem BioAssay AID1259407 (Chemical Carcinogenesis Research Information System (CCRIS), 2018).

Calls of active or inactive are those of the source. How the calls were made is not given here.

This data set deals with CCRIS mutagenicity, Ames/micronucleus/aberration tests. Put plainly: CCRIS mutagenicity studies.
[1] abbreviates: Test System: AMES SALMONELLA TYPHIMURIUM, Strain/Indicator: TA98, Metabolic Activation: NONE, Method: PREINCUBATION
Where [2] appears, read: Test System: AMES SALMONELLA TYPHIMURIUM, Strain/Indicator: TA100, Metabolic Activation: NONE, Method: PREINCUBATION
The mark [3] stands for this setting: Test System: AMES SALMONELLA TYPHIMURIUM, Strain/Indicator: TA102, Metabolic Activation: NONE, Method: PREINCUBATION

As to `Cc1cnc[nH]1`, the mutagenic call runs as follows: (End Point: In vivo micronucleus, Test System: Bone marrow polychromatic erythrocytes, Species: Mouse, Strain/Sex: B6C3F1/Male, Route: Intraperitoneal) “inactive; positive in trial 1; negative in trial 2; percentage of pces declined with incre”; (End Point: In vivo micronucleus, Test System: Polychromatic erythrocytes and Normochromatic erythrocytes, Species: Mouse, Strain/Sex: B6C3F1/Female, Route: Oral) “inactive; negative (no increase in micronucleus frequencies at all levels; percentage of”; (End Point: In vivo micronucleus, Test System: Polychromatic erythrocytes and Normochromatic erythrocytes, Species: Mouse, Strain/Sex: B6C3F1/Male, Route: Oral) “inactive; negative (no increase in micronucleus frequencies at all levels; percentage of”; under setting [1], “inactive; negative”; (Test System: AMES SALMONELLA TYPHIMURIUM, Strain/Indicator: TA98, Metabolic Activation: RAT LIVER S-9, PHENOBARBITAL AND BETA-NAPHTHOFLAVONE, Method: PREINCUBATION) “inactive; negative”; under setting [2], “inactive; negative”. Moreover, the mutagenic call runs as follows: (Test System: AMES SALMONELLA TYPHIMURIUM, Strain/Indicator: TA100, Metabolic Activation: RAT LIVER S-9, PHENOBARBITAL AND BETA-NAPHTHOFLAVONE, Method: PREINCUBATION) “inactive; negative”; under setting [3], “inactive; negative”; (Test System: AMES SALMONELLA TYPHIMURIUM, Strain/Indicator: TA102, Metabolic Activation: RAT LIVER S-9, PHENOBARBITAL AND BETA-NAPHTHOFLAVONE, Method: PREINCUBATION) “inactive; negative”; (Test System: AMES SALMONELLA TYPHIMURIUM, Strain/Indicator: TA104, Metabolic Activation: NONE, Method: PREINCUBATION) “inactive; negative”; (Test System: AMES SALMONELLA TYPHIMURIUM, Strain/Indicator: TA104, Metabolic Activation: RAT LIVER S-9, PHENOBARBITAL AND BETA-NAPHTHOFLAVONE, Method: PREINCUBATION) “inactive; negative”; (Test System: AMES SALMONELLA TYPHIMURIUM, Strain/Indicator: TA1535, Metabolic Activation: NONE, Method: PREINCUBATION) “inactive; negative”. The mutagenic call was “inactive; negative” (Test System: AMES SALMONELLA TYPHIMURIUM, Strain/Indicator: TA1535, Metabolic Activation: RAT LIVER S-9, PHENOBARBITAL AND BETA-NAPHTHOFLAVONE, Method: PREINCUBATION); “inactive; negative” (Test System: AMES SALMONELLA TYPHIMURIUM, Strain/Indicator: TA1537, Metabolic Activation: NONE, Method: PREINCUBATION); “inactive; negative” (Test System: AMES SALMONELLA TYPHIMURIUM, Strain/Indicator: TA1537, Metabolic Activation: RAT LIVER S-9, PHENOBARBITAL AND BETA-NAPHTHOFLAVONE, Method: PREINCUBATION); “inactive; negative” (Test System: Ames Salmonella typhimurium, Strain/Indicator: TA97, Metabolic Activation: Hamster, liver, S-9, Aroclor 1254, Method: Preincubation); “inactive; negative” (Test System: Ames Salmonella typhimurium, Strain/Indicator: TA97, Metabolic Activation: None, Method: Preincubation); “inactive; negative” (Test System: Ames Salmonella typhimurium, Strain/Indicator: TA97, Metabolic Activation: Rat, liver, S-9, Aroclor 1254, Method: Preincubation). Besides, the mutagenic call (Test System: Ames Salmonella typhimurium, Strain/Indicator: TA98, Metabolic Activation: Hamster, liver, S-9, Aroclor 1254, Method: Preincubation) is “inactive; negative”; the mutagenic call (Test System: Ames Salmonella typhimurium, Strain/Indicator: TA98, Metabolic Activation: None, Method: Preincubation) was “inactive; negative”; the mutagenic call (Test System: Ames Salmonella typhimurium, Strain/Indicator: TA98, Metabolic Activation: Rat, liver, S-9, Aroclor 1254, Method: Preincubation) is “inactive; negative”; the mutagenic call (Test System: Ames Salmonella typhimurium, Strain/Indicator: TA100, Metabolic Activation: Hamster, liver, S-9, Aroclor 1254, Method: Preincubation) was “inactive; negative”; the mutagenic call (Test System: Ames Salmonella typhimurium, Strain/Indicator: TA100, Metabolic Activation: None, Method: Preincubation) was “inactive; negative”; the mutagenic call (Test System: Ames Salmonella typhimurium, Strain/Indicator: TA100, Metabolic Activation: Rat, liver, S-9, Aroclor 1254, Method: Preincubation) is “inactive; negative”. In addition, the mutagenic call (Test System: Ames Salmonella typhimurium, Strain/Indicator: TA1535, Metabolic Activation: Hamster, liver, S-9, Aroclor 1254, Method: Preincubation) is “inactive; negative”; the mutagenic call (Test System: Ames Salmonella typhimurium, Strain/Indicator: TA1535, Metabolic Activation: None, Method: Preincubation) was “inactive; negative”; the mutagenic call (Test System: Ames Salmonella typhimurium, Strain/Indicator: TA1535, Metabolic Activation: Rat, liver, S-9, Aroclor 1254, Method: Preincubation) was “inactive; negative”; the mutagenic call (Test System: E.COLI, Strain/Indicator: WP2UVRA/PKM101, Metabolic Activation: NONE, Method: PREINCUBATION) was “inactive; negative”; the mutagenic call (Test System: E.COLI, Strain/Indicator: WP2UVRA/PKM101, Metabolic Activation: RAT LIVER S-9, PHENOBARBITAL AND BETA-NAPHTHOFLAVONE, Method: PREINCUBATION) is “inactive; negative”; the mutagenic call (Test System: E.COLI, Strain/Indicator: WP2UVRA, Metabolic Activation: NONE, Method: PREINCUBATION) is “inactive; negative”. In addition, the mutagenic call (Test System: E.COLI, Strain/Indicator: WP2UVRA, Metabolic Activation: RAT LIVER S-9, PHENOBARBITAL AND BETA-NAPHTHOFLAVONE, Method: PREINCUBATION) was “inactive; negative”.
`C=CC(C)(O)CCC=C(C)C` (configuration not stated): the mutagenic call runs as follows: (Test System: AMES SALMONELLA TYPHIMURIUM, Strain/Indicator: TA97, Metabolic Activation: NONE, Method: PREINCUBATION) “inactive; negative”; (Test System: AMES SALMONELLA TYPHIMURIUM, Strain/Indicator: TA97, Metabolic Activation: RAT, LIVER, S-9, AROCLOR 1254, Method: PREINCUBATION) “inactive; negative”; under setting [3], “inactive; negative”; (Test System: AMES SALMONELLA TYPHIMURIUM, Strain/Indicator: TA102, Metabolic Activation: RAT, LIVER, S-9, AROCLOR 1254, Method: PREINCUBATION) “inactive; negative”; (Test System: E. coli, Strain/Indicator: WP2 IC185 trpE65, Metabolic Activation: None, Method: Plate incorporation (Test material solvent: ethanol)) “inactive; negative”; (Test System: E. coli, Strain/Indicator: WP2 IC202 trpE65 oxyR/pKM101, Metabolic Activation: None, Method: Plate incorporation (Test material solvent: ethanol)) “inactive; negative”.
Regarding `O[C@H]1[C@@H]2O[C@@H]2c2c(ccc3cc4c(ccc5ccccc54)nc23)[C@@H]1O`, the mutagenic call reads like this: under setting [1], “active; positive”; (Test System: AMES SALMONELLA TYPHIMURIUM, Strain/Indicator: TA98, Metabolic Activation: RAT, LIVER, AROCLOR 1254, NADPH GENERATING SYSTEM, Method: STANDARD PLATE) “active; positive”; under setting [2], “active; positive”; (Test System: AMES SALMONELLA TYPHIMURIUM, Strain/Indicator: TA100, Metabolic Activation: RAT, LIVER, AROCLOR 1254, NADPH GENERATING SYSTEM, Method: STANDARD PLATE) “active; positive”; (Test System: CHINESE HAMSTER V-79, Strain/Indicator: V-79/8-AZAGUANINE, Metabolic Activation: NONE) “active; positive”; (Test System: CHINESE HAMSTER V-79, Strain/Indicator: V-79/8-AZAGUANINE, Method: STANDARD PLATE) “active; positive”.
For the compound `Nc1ccc2c(c1)oc1ccccc12`, the mutagenic call (Test System: AMES SALMONELLA TYPHIMURIUM, Strain/Indicator: TA98, Metabolic Activation: NONE, Method: STANDARD PLATE) was “active; positive”; the mutagenic call (Test System: AMES SALMONELLA TYPHIMURIUM, Strain/Indicator: TA98, Metabolic Activation: S-9, PHENOBARBITAL AND 5,6-BENZOFLAVONE, Method: STANDARD PLATE) is “active; positive”; the mutagenic call (Test System: AMES SALMONELLA TYPHIMURIUM, Strain/Indicator: TA100, Metabolic Activation: NONE, Method: STANDARD PLATE) was “inactive; negative”; the mutagenic call (Test System: AMES SALMONELLA TYPHIMURIUM, Strain/Indicator: TA100, Metabolic Activation: S-9, PHENOBARBITAL AND 5,6-BENZOFLAVONE, Method: STANDARD PLATE) is “active; positive”.
